Data on 13 molecules can be found in patent publication US20090048301A1 (IMCLONE SYSTEMS INCORPORATED, priority 2003, published 2009).

Molecules are shown by their SMILES.

The subject of series [1] is xenograft models. To be noted: Cancer Research 62, 3113, 2002; cited from earlier work.
Series [2] concerns tumor vasculature. To be noted: Cancer Research 59, 1626 (1999); cited from earlier work.
The subject of series [3] is MDR cells. To be noted: Cancer Research 61, 392, 2001; cited from earlier work.
The conditions of series [4]: Cancer Research 61, 392, 2001; cited from earlier work.
In series [5] the test system is A431, human epidermoid carcinoma cells. In words: Cell cycle analysis (FACS), mitotic arrest in G2/M. The series is classed as cell-based. To be noted: Homo sapiens, A-431, 24 h, read-out: FACS Assay: concentration required to achieve inhibition in FACS assay. Summed up: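 A431 cells, 500,000/well at treatment, exposed to compounds at 0.01–1 μM final (0.1% DMSO) for 24 h. Ethanol-fixed cells RNase-treated (1 μg/ml, 37° C., 15 min), stained with propidium iodide (50 μg/ml, 30 min, RT). DNA ploidy by flow cytometry; mitotic arrest scored as G2/M accumulation.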
(A flow cytometer gives signals particle by particle.)

The subject of series [6] is bovine tubulin. In words: In vitro tubulin polymerization assay (turbidity at 340 nm). The series is classed as biochemical. To be noted: 10 μM compound, 30 minute data point, vs 1% DMSO control. Summed up:
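Percent inhibition derives from turbidity (340 nm) at 30 min relative to 1% DMSO controls, read every minute at 37° C. Polymerization mix: 3 mg/ml bovine tubulin, <3% MAPs, in PIPES pH 7 G-PEM with 1 mM GTP, 1 mM MgCl2, 5% glycerol; enhancers also detectable.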

For series [7], the system named is A431 human cancer cell line. The experiment in a line: Sulphorhodamine B (SRB) growth inhibition assay. The series is classed as cell-based. To be noted: A-431, A431 cells, 48 hours, read-out: SRB Assay: μM required to inhibit tumor cell growth by 50% (GI50). A digest of the protocol: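 A431 cells were seeded at 10,000 cells/well and preincubated 24 h, then exposed for 48 h at 37 °C, 5% CO2 to five log doses from 100 μM to 0.01 μM (final). After TCA fixation, SRB-stained protein was read at 515 nm. Percent growth was set against time-zero and DMSO control OD, and GI50 was taken at the 50% intercept.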

For `COc1ccc2[nH]c(C(=O)c3ccccc3)cc2c1` [Compound D64131], in series [1], the “efficacy in xenograft models” value was “efficacious in xenograft models”, the oral activity result is “orally active” and the toxicity entry was “no signs of toxicity”.

`COc1ccc(/C=C\c2cc(OC)c(OC)c(OC)c2)cc1OP(=O)(O)O` [Combretastatin A-4 phosphate]: in series [2], the “effect on tumor vasculature and necrosis in mouse tumor models” value is “change endothelial cell morphology, shut down tumor vasculature, and induce tumor necrosis”.

For the molecule `O=C(Nc1ccncc1)C(=O)c1cn(Cc2ccc(Cl)cc2)c2ccccc12` [Compound D-24851], the “efficacy toward MDR cells” value in series [3] is “shows efficacy toward MDR cells”. Besides, in series [4], the “antitumor activity in vivo” value is “exert antitumor activity in vivo” and the neurotoxicity result is “lacks neurotoxicity”.

For orientation: GI50 means the concentration that inhibits growth by half. Turning to `c1ccc(-c2nnc(Nc3ccc4c(c3)OCCO4)o2)c(NCc2cn[nH]c2)c1` [Compound 223, (2,3-Dihydro-benzo[1,4]dioxin-6-yl)-(5-{2-[(1H-pyrazol-4-ylmethyl)-amino]-phenyl}-[1,3,4]oxadiazol-2-yl)-amine], the minimal effective concentration in series [5] is 0.1 µM. For the same molecule, in series [6], the “Tubulin Assay: percent inhibition at 10 μM based on 30 minute data” value (shortened to “Tubulin Assay: percent inhibition”) was 84%. Moreover, the GI50 in series [7] stood at 1.5 µM.

Take `CN(C)c1ccc(Nc2nnc(-c3cccnc3Nc3ccc4cn[nH]c4c3)[nH]2)cc1` [Compound 21, (1H-Indazol-6-yl)-{3-[5-(4-dimethylamino-phenylamino)-4H-[1,2,4]triazol-3-yl]-pyridin-2-yl}-amine]: the minimal effective concentration in series [5] turned out to be 100 µM. For the same molecule, in series [6], the “Tubulin Assay: percent inhibition” value worked out at 24%. Further, the 50% growth inhibitory concentration (GI50) in series [7] came to 40 µM.

With `COc1ccc(OC)c(Nc2nnc(-c3cccnc3Nc3ccc4cn[nH]c4c3)[nH]2)c1` [Compound 20, {3-[5-(2,5-Dimethoxy-phenylamino)-4H-[1,2,4]triazol-3-yl]-pyridin-2-yl}-(1H-indazol-6-yl)-amine], the minimal effective concentration in series [5] amounted to 10 µM. Further, the “Tubulin Assay: percent inhibition” value in series [6] was found to be 44%. Also, the GI50 in series [7] stood at 0.9 µM.

Take `COc1cc(CNc2ncccc2-c2nnc(Nc3ccc4c(c3)OCO4)o2)cc(OC)c1` [Compound 182, {3-[5-(Benzo[1,3]dioxol-5-ylamino)-[1,3,4]oxadiazol-2-yl]-pyridin-2-yl}-(3,5-dimethoxy-benzyl)-amine]: in series [5], the minimal effective concentration is 1 µM. In series [6], the “Tubulin Assay: percent inhibition” value is 84%. Besides, the GI50 in series [7] was determined as 0.2 µM.

`CN(C)c1ccc(Nc2nnc(-c3cccnc3NCc3ccc4c(c3)OCO4)[nH]2)cc1` [Compound 15, Benzo[1,3]dioxol-5-ylmethyl-{3-[5-(4-dimethylamino-phenylamino)-4H-[1,2,4]triazol-3-yl]-pyridin-2-yl}-amine]: the minimal effective concentration in series [5] was determined as 100 µM. The “Tubulin Assay: percent inhibition” value in series [6] is 20%. For the same molecule, the 50% growth inhibitory concentration (GI50) in series [7] stood at 0.2 µM.

`COc1cccc(Nc2nnc(-c3ccccc3NCc3ccncc3)o2)c1` [Compound 228, (3-Methoxy-phenyl)-(5-{2-[(pyridin-4-ylmethyl)-amino]-phenyl}-[1,3,4]oxadiazol-2-yl)-amine]: the minimal effective concentration in series [5] was determined as 10 µM. In series [6], the “Tubulin Assay: percent inhibition” value is listed as 57%. For the same molecule, the GI50 in series [7] is 2 µM.

Consider `CN(C)c1ccc(Nc2nnc(-c3cccnc3Nc3ccc4c(c3)OCO4)[nH]2)cc1` [Compound 11, Benzo[1,3]dioxol-5-yl-{3-[5-(4-dimethylamino-phenylamino)-4H-[1,2,4]triazol-3-yl]-pyridin-2-yl}-amine], for which, in series [5], the minimal effective concentration is 10 µM. Also, the “Tubulin Assay: percent inhibition” value in series [6] stood at 82%. Moreover, the GI50 in series [7] is 0.25 µM.

Turning to `COc1cc(Nc2ncccc2-c2nnc(Nc3cc(OC)ccc3OC)[nH]2)cc(OC)c1` [Compound 5, (3,5-Dimethoxy-phenyl)-{3-[5-(2,5-dimethoxy-phenylamino)-4H-[1,2,4]triazol-3-yl]-pyridin-2-yl}-amine], the minimal effective concentration in series [5] stood at 100 µM. For the same molecule, in series [6], the “Tubulin Assay: percent inhibition” value came out at 20%. Also, in series [7], the GI50 is 10 µM.

Regarding `c1cnc(NCc2ccc3c(c2)OCO3)c(-c2nnc(Nc3ccc4c(c3)OCO4)o2)c1` [Compound 181, {3-[5-(Benzo[1,3]dioxol-5-ylamino)-[1,3,4]oxadiazol-2-yl]-pyridin-2-yl}-benzo[1,3]dioxol-5-ylmethyl-amine], the minimal effective concentration in series [5] was found to be 1 µM. For the same molecule, the “Tubulin Assay: percent inhibition” value in series [6] was 76%. Further, the GI50 in series [7] was found to be 0.3 µM.

Regarding `c1cncc(CNc2ncccc2-c2nnc(Nc3ccc4c(c3)OCO4)[nH]2)c1` [Compound 31, {3-[5-(Benzo[1,3]dioxol-5-ylamino)-4H-[1,2,4]triazol-3-yl]-pyridin-2-yl}-pyridin-3-ylmethyl-amine], the minimal effective concentration in series [5] worked out at 1 µM. In addition, the “Tubulin Assay: percent inhibition” value in series [6] stood at 49%. For the same molecule, the GI50 in series [7] came to 0.25 µM.
